The test addresses HPK1. In words: HPK1 Lantha Binding Assay ("Lanth"). The conditions noted are these: Table B1-1, read-out: HPK1 Ki (μM) (Lanth). The method in brief:
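TR-FRET tracer displacement with 2 nM GST-tagged kinase, 2 nM Eu-anti-GST antibody and 15 nM Tracer222 at 23 C. Enzyme–antibody preincubated 1 h with compound, then tracer added for 1 h; 340 nm excitation, 615/665 nm emission. Ki from Morrison fit over an 11-point 5-fold dilution.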

For the compound `Cc1ccncc1-c1nc(N)c2cnc(NC(=O)[C@H]3C[C@@H]3CC#N)cc2c1Cl` [Compound 270, (1S,2R)—N-[8-amino-5-chloro-6-(4-methylpyridin-3-yl)-2,7-naphthyridin-3-yl]-2-(cyanomethyl)cyclopropane-1-carboxamide], the Ki was 0.116 nM.
For `CCc1c(-c2cnccc2C)nc(N)c2cnc(NC(=O)[C@@H]3C[C@H]3CC#N)cc12` [Compound 272, (1R,2S)—N-[8-amino-5-ethyl-6-(4-methylpyridin-3-yl)-2,7-naphthyridin-3-yl]-2-(cyanomethyl)cyclopropane-1-carboxamide] the value was 0.139 nM.
Turning to `Cc1ccncc1-c1cc2cc(Nc3cnn([C@@H](C)C#N)c3)ncc2c(N)n1` [Compound 274, (S)-2-(4-(8-amino-6-(4-methylpyridin-3-yl)-2,7-naphthyridin-3-ylamino)-1H-pyrazol-1-yl)propanenitrile], the Ki was determined as 0.297 nM.
For `Cc1ccc(O)cc1-c1cc2cc(NC(=O)[C@H]3C[C@@H]3c3cnn(C)c3)ncc2c(N)n1` [Compound 286, (1S,2S)—N-[8-amino-6-(5-hydroxy-2-methylphenyl)-2,7-naphthyridin-3-yl]-2-(1-methyl-1H-pyrazol-4-yl)cyclopropane-1-carboxamide], the Ki is 1.82 nM.
Take `Cc1ccc(O)cc1-c1cc2cc(NC(=O)[C@@H]3C[C@H]3c3cnn(C)c3)ncc2c(N)n1` [Compound 287, (1R,2R)—N-[8-amino-6-(5-hydroxy-2-methylphenyl)-2,7-naphthyridin-3-yl]-2-(1-methyl-1H-pyrazol-4-yl)cyclopropane-1-carboxamide]: the inhibition constant Ki came out at 0.078 nM.
For `COc1ccc(C)c(-c2cc3cc(NC(=O)[C@H]4C[C@@H]4c4cnn(C)c4)ncc3c(N)n2)c1` [Compound 288, (1S,2S)—N-[8-amino-6-(5-methoxy-2-methylphenyl)-2,7-naphthyridin-3-yl]-2-(1-methyl-1H-pyrazol-4-yl)cyclopropane-1-carboxamide] the value was 6.19 nM; for `COc1ccc(C)c(-c2cc3cc(NC(=O)C4C[C@H]4c4cnn(C)c4)ncc3c(N)n2)c1` (stereo partly drawn) [Compound 289, (1R,2R)—N-[8-amino-6-(5-methoxy-2-methylphenyl)-2,7-naphthyridin-3-yl]-2-(1-methyl-H-pyrazol-4-yl)cyclopropane-1-carboxamide], 7.39 nM.
On to `Cc1ccc(C(=O)N(C)C)cc1-c1cc2cc(NC(=O)[C@H]3C[C@@H]3c3cnn(C)c3)ncc2c(N)n1` [Compound 290, 3-(1-amino-6-[[(1S,2S)-2-(1-methyl-1H-pyrazol-4-yl)cyclopropane]amido]-2,7-naphthyridin-3-yl)-N,N,4-trimethylbenzamide], for which the Ki is 3.36 nM.
For the compound `Cc1ccc(C(=O)N(C)C)cc1-c1cc2cc(NC(=O)[C@@H]3C[C@H]3c3cnn(C)c3)ncc2c(N)n1` [Compound 291, 3-(1-amino-6-[[(1R,2R)-2-(1-methyl-1H-pyrazol-4-yl)cyclopropane]amido]-2,7-naphthyridin-3-yl)-N,N,4-trimethylbenzamide], the Ki was 63.8 nM.
For the compound `Cc1ccncc1-c1cc2cc(NC(=O)[C@H]3C[C@@H]3c3cnn(CCOCCN)c3)ncc2c(N)n1` [Compound 292, (1S,2S)—N-[8-amino-6-(4-methylpyridin-3-yl)-2,7-naphthyridin-3-yl]-2-[1-[2-(2-aminoethoxy)ethyl]-1H-pyrazol-4-yl]cyclopropane-1-carboxamide], the Ki is 0.0417 nM.
As for `Cc1ccncc1-c1cc2cc(NC(=O)[C@@H]3C[C@H]3c3cnn(CCOCCN)c3)ncc2c(N)n1` [Compound 293, (1R,2R)—N-[8-amino-6-(4-methylpyridin-3-yl)-2,7-naphthyridin-3-yl]-2-[1-[2-(2-aminoethoxy)ethyl]-1H-pyrazol-4-yl]cyclopropane-1-carboxamide], the Ki worked out at 0.668 nM.
The value for `NCCOCCn1cc([C@H]2C[C@@H]2C(=O)Nc2cc3cc(-c4c(Cl)cccc4Cl)nc(N)c3cn2)cn1` [Compound 295, (1S,2S)—N-[8-amino-6-(2,6-dichlorophenyl)-2,7-naphthyridin-3-yl]-2-[1-[2-(2-aminoethoxy)ethyl]-1H-pyrazol-4-yl]cyclopropane-1-carboxamide] was 0.287 nM; that for `NCCOCCn1cc([C@@H]2C[C@H]2C(=O)Nc2cc3cc(-c4c(Cl)cccc4Cl)nc(N)c3cn2)cn1` [Compound 296, (1R,2R)—N-[8-amino-6-(2,6-dichlorophenyl)-2,7-naphthyridin-3-yl]-2-[1-[2-(2-aminoethoxy)ethyl]-1H-pyrazol-4-yl]cyclopropane-1-carboxamide] was 0.026 nM; that for `Cc1ccccc1-c1cc2cc(NC(=O)[C@@H]3C[C@H]3c3cnn(C)c3)ncc2c(N)n1` [Compound 298, (1R,2R)—N-[8-amino-6-(2-methylphenyl)-2,7-naphthyridin-3-yl]-2-(1-methyl-1H-pyrazol-4-yl)cyclopropane-1-carboxamide] was 0.932 nM.
Regarding `Cc1ccccc1-c1cc2cc(NC(=O)[C@H]3C[C@@H]3c3cnn(C)c3)ncc2c(N)n1` [Compound 299, (1S,2S)—N-[8-amino-6-(2-methylphenyl)-2,7-naphthyridin-3-yl]-2-(1-methyl-1H-pyrazol-4-yl)cyclopropane-1-carboxamide], the Ki turned out to be 0.0359 nM.
For the compound `Cc1ccc(C#N)cc1-c1cc2cc(NC(=O)[C@@H]3C[C@H]3c3cnn(C)c3)ncc2c(N)n1` [Compound 300, (1R,2R)—N-[8-amino-6-(5-cyano-2-methylphenyl)-2,7-naphthyridin-3-yl]-2-(1-methyl-1H-pyrazol-4-yl)cyclopropane-1-carboxamide], the Ki is 1.36 nM.
As to `Cc1ccc(C#N)cc1-c1cc2cc(NC(=O)[C@H]3C[C@@H]3c3cnn(C)c3)ncc2c(N)n1` [Compound 301, (1S,2S)—N-[8-amino-6-(5-cyano-2-methylphenyl)-2,7-naphthyridin-3-yl]-2-(1-methyl-1H-pyrazol-4-yl)cyclopropane-1-carboxamide], the Ki is 0.0692 nM.
As for `Cn1cc([C@@H]2C[C@H]2C(=O)Nc2cc3cc(-c4c(F)cccc4Cl)nc(N)c3cn2)cn1` [Compound 302, (1R,2R)—N-(8-amino-6-(2-chloro-6-fluorophenyl)-2,7-naphthyridin-3-yl)-2-(1-methyl-1H-pyrazol-4-yl)cyclopropanecarboxamide], the Ki turned out to be 0.65 nM.
For `Cn1cc([C@H]2C[C@@H]2C(=O)Nc2cc3cc(-c4c(F)cccc4Cl)nc(N)c3cn2)cn1` [Compound 303, (1S,2S)—N-(8-amino-6-(2-chloro-6-fluorophenyl)-2,7-naphthyridin-3-yl)-2-(1-methyl-H-pyrazol-4-yl)cyclopropanecarboxamide] the value was 0.027 nM; for `Cn1cc([C@H]2C[C@@H]2C(=O)Nc2cc3cc(-c4ccccc4Cl)nc(N)c3cn2)cn1` [Compound 305, (1R,2R)—N-[8-amino-6-(2-chlorophenyl)-2,7-naphthyridin-3-yl]-2-(1-methyl-H-pyrazol-4-yl)cyclopropane-1-carboxamide], 0.152 nM; for `Cc1cc(-c2ncco2)ncc1-c1cc2cc(NC(=O)[C@H]3C[C@@H]3c3cnn(C)c3)ncc2c(N)n1` [Compound 308, (1S,2S)—N-[8-amino-6-[4-methyl-6-(1,3-oxazol-2-yl)pyridin-3-yl]-2,7-naphthyridin-3-yl]-2-(1-methyl-1H-pyrazol-4-yl)cyclopropane-1-carboxamide], 3.04 nM.
